Patent publication US20170334927A1 (Shanghai Sun-sail Pharmaceutical Science & Technology Co., …, priority 2014, published 2017)
≈ marks a conversion by molar mass, not a printed value. Counter-ions that a name gives are not always drawn.

Tests used:
[1] = test system: Mycobacterium tuberculosis H37Rv; assay: Activity test for Mycobacterium tuberculosis (MIC, H37Rv); type: cell-based; details: for anti Mycobacterium tuberculosis activity (MIC against H37Rv), times of that of PA-824: relative to PA-824; for anti Mycobacterium tuberculosis activity (MIC against H37Rv), times of that of ethambutol: relative to ethambutol; for MIC: Mycobacterium tuberculosis H37Rv, liquid medium, 37° C., read-out: Minimum inhibitory concentration against H37Rv
Procedure: The tested strain H37Rv was transferred to liquid medium and cultured for 2 weeks at 37° C.; a small amount of the cultured bacterial solution was pipetted and placed in 4 mL of liquid medium; 10-20 sterile glass beads with a diameter of 2-3 mm were added; the mixture was shaken for 20-30 s and left to sediment for 10-20 min; the supernatant of the bacterial suspension was pipetted and adjusted to a turbidity of 1 MCF (equivalent to 1×10^7 CFU/mL) with the liquid medium for use. Each drug was dissolved to 1 mg/mL with an appropriate amount of DMSO and filtered with a 0.22 μm filter. Then, the solution was diluted to a desired experimental concentration with the liquid medium. The final concentrations of the tested drugs were set as follows: 0.001 μg/mL, 0.002 μg/mL, 0.0039 μg/mL, 0.0078 μg/mL, […], 0.03125 μg/mL, 0.0625 μg/mL, 0.125 μg/mL, 0.25 μg/mL, 0.5 μg/mL and 1 μg/mL, a total of 11 concentration gradients. 100 μL of each of the above-mentioned drug solutions was added to a 96-well microwell plate, then 100 μL bacterial solution with a concentration of 1 mg/mL was added to allow the drug concentration to reach the final set concentration, and cultured at 37° C. Three groups in parallel were set for each drug dilution with inoculation amounts of 100%, 10% and 1%, respectively, while no drug was added to the control group.

[2] = Drug metabolism test (pharmacokinetics, oral, mice); type: in vivo, ICR mice; details: 10 mg/kg; for AUC(0-inf) / AUC(0-t) / Cmax / MRT / Tmax / half-life: male, ICR, mouse, po, orally (intragastric), plasma; for pharmacokinetic properties (in words): orally, judgement on Table 6
Procedure: 18 healthy male ICR mice with a body weight of 18-22 g were administered drugs by intragastric administration, with an administration dose of 10 mg/kg and an administration volume of 10 mL/kg, respectively. These mice were fasted for 12 h before the test and had free access to drinking water. These mice were fed 2 h after administration uniformly. 0.3 mL of blood was taken from the postocular venous plexus of a mouse at the set time points, placed in a heparinized test tube and centrifuged for 10 min at 3000 rpm; and plasma was separated and frozen in a refrigerator at −20° C. When measured, the sample was treated through the method for treating the plasma sample, and the drug concentration in plasma was determined by LC-MS/MS and the pharmacokinetic parameters of the drug were calculated.

physchem = type: physicochemical; details: for Solubility: 3 days, pH 1.2; for solubility at 3 days: pH 1.2, simulated gastric fluid, thermodynamic from solid
Procedure: 3-5 mg of compound to be tested was added to 0.5 mL of aqueous HCl solution (pH=1.2) and the mixture was shaken for three days on a shaker; the sample was centrifuged for 5 min at 10,000 rpm in a centrifuge; a volumetric flask (50 mL) was loaded with 2 mL of supernatant and water was added to a volume at the graduation mark to prepare a sample solution; and 2.6 mg of sample was precisely weighed into a volumetric flask (50 mL), an appropriate amount of methanol was added to dissolve the sample, and water was added to a volume at the graduation mark and shaken well to give a control sample solution. 20 μL of sample solution and control sample solution were each injected, and tested by liquid chromatography. The solubility was calculated as follows:
Solubility (mg/mL)=C (control)*25*A (sample)/A (control)
C (control): concentration of the control sample
A (sample): peak area of the liquid chromatogram of the sample solution
A (control): peak area of the liquid chromatogram of the control sample solution

hERG potassium channel = target: T1, hERG potassium channel (Homo sapiens, UniProt Q12809); assay: Inhibitory effect on hERG potassium ion channel (whole cell patch clamp, HEK-293 cells); type: cell-based; details: hERG potassium current, room temperature, read-out: IC50 (inhibition on hERG)
T1 construct: host or cells: HEK-293
Procedure: hERG potassium channel currents were recorded with the whole cell patch clamp technique at room temperature in HEK-293 cells (Creacell™, France) expressing hERG stably. A glass microelectrode with a tip resistance of about 1-4 MΩ was connected to the Axon 200A patch clamp amplifier. Clamp voltage and data record were controlled by a computer via the Axon DigiData 1322A A/D converter with the clampex 9.2 software; the cells were clamped at −80 mV; and the step voltage for inducing the hERG potassium current (IhERG) was changed from −80 mV to +20 mV by providing a 2 s depolarization voltage, repolarized to −40 mV and returned to −80 mV after 4 s. This voltage step was given respectively before and after administration to induce the hERG potassium current.
Data analysis and processing were performed with the PatchMaster, GraphPad Prism 5 and Excel softwares. The degree of inhibition of different compound concentrations on the hERG potassium current (hERG tail current peak induced at −50 mV) was calculated using the following formula:
Fractional block %=[1−(I/Io)]×100%
in the formula, Fractional block represents the percent inhibition of a compound on the hERG potassium current, and I and Io represent the magnitudes of the hERG potassium current […], respectively.
The IC50 of a compound was calculated using the following equation by fitting: […]
in the equation, I and Io represent the magnitudes of the hERG potassium current […], respectively; [C] is the compound concentration, and n is the Hill coefficient.

[3] = in vivo; cited from earlier work

T1 sequence (Q12809 whole entry): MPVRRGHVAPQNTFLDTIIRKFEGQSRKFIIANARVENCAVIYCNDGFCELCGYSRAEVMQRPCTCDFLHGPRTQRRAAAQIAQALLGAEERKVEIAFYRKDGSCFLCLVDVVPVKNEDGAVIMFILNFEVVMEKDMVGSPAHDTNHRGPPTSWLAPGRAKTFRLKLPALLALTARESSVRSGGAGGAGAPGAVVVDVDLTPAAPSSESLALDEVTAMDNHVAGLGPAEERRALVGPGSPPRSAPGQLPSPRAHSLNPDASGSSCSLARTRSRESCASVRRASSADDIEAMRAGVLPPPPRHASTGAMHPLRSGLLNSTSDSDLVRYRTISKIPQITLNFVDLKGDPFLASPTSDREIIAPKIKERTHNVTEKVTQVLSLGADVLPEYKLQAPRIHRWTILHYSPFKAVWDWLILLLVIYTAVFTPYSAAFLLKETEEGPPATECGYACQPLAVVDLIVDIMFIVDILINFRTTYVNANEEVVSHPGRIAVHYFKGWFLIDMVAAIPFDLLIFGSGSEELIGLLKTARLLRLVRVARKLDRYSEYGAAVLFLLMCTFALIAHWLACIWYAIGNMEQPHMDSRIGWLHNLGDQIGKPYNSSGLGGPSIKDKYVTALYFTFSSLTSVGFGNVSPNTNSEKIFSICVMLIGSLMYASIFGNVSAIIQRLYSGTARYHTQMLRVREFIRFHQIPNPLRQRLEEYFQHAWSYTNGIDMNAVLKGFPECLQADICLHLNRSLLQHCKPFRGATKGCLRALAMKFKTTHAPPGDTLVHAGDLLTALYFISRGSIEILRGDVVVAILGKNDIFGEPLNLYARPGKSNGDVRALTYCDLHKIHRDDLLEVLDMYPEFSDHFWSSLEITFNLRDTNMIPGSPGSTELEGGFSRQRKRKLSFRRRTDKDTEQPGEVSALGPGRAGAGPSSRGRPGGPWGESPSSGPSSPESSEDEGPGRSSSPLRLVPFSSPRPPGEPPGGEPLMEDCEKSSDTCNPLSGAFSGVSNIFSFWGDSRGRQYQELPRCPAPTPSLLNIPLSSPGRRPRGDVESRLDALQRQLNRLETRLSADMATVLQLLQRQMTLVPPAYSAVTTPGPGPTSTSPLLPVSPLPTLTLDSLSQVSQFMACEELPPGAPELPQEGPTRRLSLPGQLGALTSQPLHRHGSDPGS

Row | SMILES | anti Mycobacterium tuberculosis activity (MIC against H37Rv), times of that of PA-824 [1] | anti Mycobacterium tuberculosis activity (MIC against H37Rv), times of that of ethambutol [1] | MIC [1] | AUC(0-inf) [2] | AUC(0-t) [2] | Cmax [2] | MRT [2] | Tmax [2] | half-life [2] | Solubility (physchem) | solubility at 3 days (physchem) | IC50 (hERG potassium channel) | oral bioavailability (in words, background) [3] | melting point | pharmacokinetic properties (in words) [2]
1 | O=[N+]([O-])c1cn2c(n1)OC[C@@H](NCc1cnc(N3CCN(c4ccc(OC(F)(F)F)cc4)CC3)nc1)C2 [Compound 18] | 8 times | 64 times | 7.8 ng/mL (≈ 0.015 µM) | 16700 ng·h/mL | 16000 ng·h/mL | 1470 ng/mL | 7.11 h | 2 h | 5.29 h | 1532.1 µg/mL (≈ 2940 µM) | > 1000 µg/mL | 41.1 µM |  |  | 
2 | C[C@]1(COc2ccc(N3CCC(Oc4ccc(OC(F)(F)F)cc4)CC3)cc2)Cn2cc([N+](=O)[O-])nc2O1 [OPC-67683] |  |  |  |  |  |  |  |  |  |  |  |  | very low |  | 
3 | CN(Cc1cnc(N2CCN(c3ccc(OC(F)(F)F)cc3)CC2)nc1)[C@@H]1COc2nc([N+](=O)[O-])cn2C1.O=C(O)/C=C/C(=O)O |  |  |  |  |  |  |  |  |  |  |  |  |  | 143 to 145 °C | 
4 | O=[N+]([O-])c1cn2c(n1)OC[C@@H](OCc1ccc(OC(F)(F)F)cc1)C2 [PA-824, reference compound] |  |  | 62.5 ng/mL (≈ 0.174 µM) |  |  |  |  |  |  |  | 17 µg/mL (≈ 47.3 µM) |  | low |  | 
5 | Cc1nc(N2CCN(c3ccc(OC(F)(F)F)cc3)CC2)ncc1CN[C@@H]1COc2nc([N+](=O)[O-])cn2C1 (as salt: methanesulfonate) [Compound 49, (S)-N-((4-methyl-2-(4-(4-(trifluoromethoxy)phenyl)piperazin-1-yl)pyrimidin-5-yl)methyl)-2-nitro-6,7-dihydro-5H-imidazo[2,1-b][1,3]oxazin-6-amine methanesulfonate] |  |  |  |  |  |  |  |  |  |  |  |  |  | 175 to 177 °C | 
6 | CC1CN(c2ccc(OC(F)(F)F)cc2)CCN1c1ncc(CN[C@@H]2COc3nc([N+](=O)[O-])cn3C2)cn1 (stereo partly drawn) [Compound 20, (3S)—N-((6-(2-methyl-4-(4-(trifluoromethoxy)phenyl)piperazin-1-yl)pyrimidin-3-yl)methyl)-7-nitro-3,4-dihydro-2H-imidazo[2,1-b][1,3]oxazin-3-amine] | 32 times | 256 times | 1.95 ng/mL (≈ 0.00365 µM) | 21600 ng·h/mL | 21500 ng·h/mL | 2100 ng/mL | 4.82 h | 2.33 h | 2.98 h | 1023.8 µg/mL (≈ 1920 µM) | > 1000 µg/mL |  |  |  | excellent
7 | CC1CN(c2ncc(CN[C@@H]3COc4nc([N+](=O)[O-])cn4C3)cn2)CCN1c1ccc(OC(F)(F)F)cc1 (stereo partly drawn) [Compound 19] | 8 times | 64 times | 7.8 ng/mL (≈ 0.0146 µM) | 16800 ng·h/mL | 16300 ng·h/mL | 1780 ng/mL | 5.02 h | 1.98 h | 3.17 h | 1321.8 µg/mL (≈ 2470 µM) | > 1000 µg/mL | 38.3 µM |  |  | 
8 | O=[N+]([O-])c1cn2c(n1)OC[C@@H](NCc1ccc(N3CCC(Oc4ccc(OC(F)(F)F)cc4)CC3)nc1)C2 [Compound 1, (S)-2-nitro-N-((6-(4-(4-(trifluoromethoxy)phenoxy)piperidin-1-yl)pyrid-3-yl)methyl)-6,7-dihydro-5H-imidazo[2,1-b][1,3]oxazin-6-amine] | 8 times | 64 times | 7.8 ng/mL (≈ 0.0146 µM) | 32300 ng·h/mL | 31300 ng·h/mL | 2670 ng/mL | 6.64 h | 2.33 h | 4.76 h |  | 784 µg/mL (≈ 1470 µM) |  |  |  | excellent
9 | O=[N+]([O-])c1cn2c(n1)OC[C@@H](NCc1cnc(N3CCN(c4ccc(C(F)(F)F)cc4)CC3)nc1)C2 [Compound 31, (S)-2-nitro-N-((2-(4-(4-(trifluoromethyl)phenyl)piperazin-1-yl)pyrimidin-5-yl)methyl)-6,7-dihydro-5H-imidazo[2,1-b][1,3]oxazin-6-amine] | 8 times | 64 times | 7.8 ng/mL (≈ 0.0155 µM) | 22500 ng·h/mL | 22400 ng·h/mL | 2140 ng/mL | 4.18 h | 1.97 h | 3.05 h | 1354.8 µg/mL (≈ 2690 µM) | > 1000 µg/mL | 39.5 µM |  |  | excellent
